Consider four compounds from PMC3914206.

Assay type in all cases: binding
The target of assay [1] is T1, panel of 442 kinases (Homo sapiens, UniProt Q52WX2).
T1 construct: purchased KINOMEscan
As to conditions: kinase SBK1; compound concentration 10 µM. The text has this: (§1) We assessed the selectivity of members of this scaffold using the KINOMEscan methodology across a near comprehensive panel of 442 kinases [[18,27]].

Assay [2] deals with T2, panel of 442 kinases (Homo sapiens, UniProt Q6DT37).
T2 construct: purchased KINOMEscan
T2 sequence (Q6DT37 whole entry): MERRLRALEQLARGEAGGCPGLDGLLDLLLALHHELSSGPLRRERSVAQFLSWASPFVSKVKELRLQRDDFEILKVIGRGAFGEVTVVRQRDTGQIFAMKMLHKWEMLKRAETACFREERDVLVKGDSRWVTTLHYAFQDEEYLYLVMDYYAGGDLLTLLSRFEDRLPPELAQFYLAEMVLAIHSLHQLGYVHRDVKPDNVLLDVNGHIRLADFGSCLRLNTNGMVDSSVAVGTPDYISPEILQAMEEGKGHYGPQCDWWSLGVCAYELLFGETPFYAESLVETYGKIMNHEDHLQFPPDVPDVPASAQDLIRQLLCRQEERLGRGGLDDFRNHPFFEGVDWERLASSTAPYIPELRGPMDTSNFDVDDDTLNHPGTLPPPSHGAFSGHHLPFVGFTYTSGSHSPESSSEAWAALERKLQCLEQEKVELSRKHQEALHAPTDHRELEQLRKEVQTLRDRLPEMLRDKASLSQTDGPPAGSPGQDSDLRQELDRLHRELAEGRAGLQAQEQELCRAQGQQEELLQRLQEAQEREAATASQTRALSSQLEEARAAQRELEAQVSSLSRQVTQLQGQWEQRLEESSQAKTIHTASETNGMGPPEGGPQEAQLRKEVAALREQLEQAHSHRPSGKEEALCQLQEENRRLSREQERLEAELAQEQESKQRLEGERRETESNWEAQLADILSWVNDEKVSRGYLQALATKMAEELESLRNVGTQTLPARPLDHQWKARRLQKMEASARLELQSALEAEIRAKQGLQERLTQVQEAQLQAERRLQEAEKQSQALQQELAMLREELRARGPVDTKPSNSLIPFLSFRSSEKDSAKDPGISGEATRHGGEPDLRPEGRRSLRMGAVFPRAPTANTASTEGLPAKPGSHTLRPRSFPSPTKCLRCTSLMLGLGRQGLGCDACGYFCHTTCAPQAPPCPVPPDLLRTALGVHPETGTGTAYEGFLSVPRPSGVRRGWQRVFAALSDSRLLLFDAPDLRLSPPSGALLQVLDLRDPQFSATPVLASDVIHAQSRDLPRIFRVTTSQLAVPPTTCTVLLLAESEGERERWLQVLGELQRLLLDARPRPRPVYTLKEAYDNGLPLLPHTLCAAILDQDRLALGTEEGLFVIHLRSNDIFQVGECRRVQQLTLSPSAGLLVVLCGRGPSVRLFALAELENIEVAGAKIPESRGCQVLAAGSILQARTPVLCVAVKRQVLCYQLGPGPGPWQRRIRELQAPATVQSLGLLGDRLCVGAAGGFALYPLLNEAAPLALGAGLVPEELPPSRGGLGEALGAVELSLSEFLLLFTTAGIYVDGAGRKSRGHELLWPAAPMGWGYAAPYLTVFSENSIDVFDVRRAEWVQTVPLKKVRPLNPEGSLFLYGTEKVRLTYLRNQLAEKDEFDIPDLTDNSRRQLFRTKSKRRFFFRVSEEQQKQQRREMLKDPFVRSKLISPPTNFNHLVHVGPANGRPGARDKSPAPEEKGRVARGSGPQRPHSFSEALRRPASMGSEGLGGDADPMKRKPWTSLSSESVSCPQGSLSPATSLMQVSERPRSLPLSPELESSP
As to conditions: Compound Concentration 10 µM.
Text: as §1

Assay [3] deals with T3, panel of 442 kinases (Homo sapiens, UniProt P33981).
T3 construct: purchased KINOMEscan
T3 sequence (P33981 1-857): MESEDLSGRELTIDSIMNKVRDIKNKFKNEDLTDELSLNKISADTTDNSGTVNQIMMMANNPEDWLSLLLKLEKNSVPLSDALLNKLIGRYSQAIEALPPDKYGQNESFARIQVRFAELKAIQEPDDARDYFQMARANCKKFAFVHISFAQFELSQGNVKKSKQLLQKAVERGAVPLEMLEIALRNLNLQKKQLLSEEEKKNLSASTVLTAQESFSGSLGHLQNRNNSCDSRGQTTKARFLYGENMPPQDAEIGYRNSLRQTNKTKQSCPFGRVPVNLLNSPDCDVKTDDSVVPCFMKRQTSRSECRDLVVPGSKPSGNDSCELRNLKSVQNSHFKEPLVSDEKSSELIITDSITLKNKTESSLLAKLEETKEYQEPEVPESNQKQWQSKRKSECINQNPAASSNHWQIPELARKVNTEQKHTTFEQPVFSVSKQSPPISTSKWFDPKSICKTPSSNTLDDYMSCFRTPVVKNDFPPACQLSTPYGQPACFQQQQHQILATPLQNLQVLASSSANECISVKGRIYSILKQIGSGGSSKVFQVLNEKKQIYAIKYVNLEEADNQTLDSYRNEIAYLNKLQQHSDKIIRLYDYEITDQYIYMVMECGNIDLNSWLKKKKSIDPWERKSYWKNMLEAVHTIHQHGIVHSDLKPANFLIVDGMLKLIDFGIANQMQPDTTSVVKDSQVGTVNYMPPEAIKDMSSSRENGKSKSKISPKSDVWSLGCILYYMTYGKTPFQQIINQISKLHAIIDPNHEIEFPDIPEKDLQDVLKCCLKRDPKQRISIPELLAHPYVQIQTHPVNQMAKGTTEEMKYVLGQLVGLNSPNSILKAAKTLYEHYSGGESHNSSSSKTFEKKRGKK
As to conditions: kinase TTK; compound concentration 10 µM.
Text: as §1

SMILES strings stand for the structures.

T1 sequence (Q52WX2 whole entry): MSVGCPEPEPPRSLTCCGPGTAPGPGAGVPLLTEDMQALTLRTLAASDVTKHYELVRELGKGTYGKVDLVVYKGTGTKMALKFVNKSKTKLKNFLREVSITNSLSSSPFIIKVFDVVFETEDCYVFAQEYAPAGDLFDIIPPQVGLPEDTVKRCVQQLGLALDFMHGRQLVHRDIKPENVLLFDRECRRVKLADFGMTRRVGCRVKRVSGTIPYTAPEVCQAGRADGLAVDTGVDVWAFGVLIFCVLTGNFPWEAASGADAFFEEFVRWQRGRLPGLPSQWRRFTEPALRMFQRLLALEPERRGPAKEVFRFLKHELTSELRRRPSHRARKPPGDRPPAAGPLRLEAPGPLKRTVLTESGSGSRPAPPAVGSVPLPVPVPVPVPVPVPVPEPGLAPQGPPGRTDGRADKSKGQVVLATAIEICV

With `CCOc1cc(C(=O)N2CCC(N3CCN(C)CC3)CC2)ccc1Nc1ncc2c(n1)N(C1CCCC1)c1ccccc1C(=O)N2C` [Compound 26], the “% Ctrl, SBK1” value at panel of 442 kinases [1] was determined as 99 % Ctrl. For the same compound, on panel of 442 kinases [2], the “KINOMEscan: DMPK2” value was found to be 100. Also, the “% Ctrl, TTK” value at panel of 442 kinases [3] worked out at 49 % Ctrl.
Consider `COc1cc(C(=O)N2CCC(N3CCN(C)CC3)CC2)ccc1Nc1ncc2c(n1)N1CCc3cccc(c31)C(=O)N2C` [Compound 24], for which the “% Ctrl, SBK1” value on panel of 442 kinases [1] was determined as 80 % Ctrl. Further, the “% Ctrl, TTK” value on panel of 442 kinases [3] came out at 46 % Ctrl.
For the compound `COc1cc(C(=O)N2CCC(N3CCN(C)CC3)CC2)ccc1Nc1ncc2c(n1)N(C)c1ccccc1C(=O)N2C` [15 (LRRK2-IN-1)], the “% Ctrl, SBK1” value on panel of 442 kinases [1] was 100 % Ctrl. The “KINOMEscan: DMPK2” value on panel of 442 kinases [2] came to 100. On panel of 442 kinases [3], the “% Ctrl, TTK” value was determined as 28 % Ctrl.
As for `COc1cc(C(=O)N2CCC(N3CCN(C)CC3)CC2)ccc1Nc1ncc2c(n1)N(C1CCCC1)c1ccccc1C(=O)N2C` [Compound 25, 11-cyclopentyl-2-((2-methoxy-4-(4-(4-methylpiperazin-1-yl)piperidine-1-carbonyl)phenyl)amino)-5-methyl-5H-benzo[e]pyrimido[5,4-b][1,4]diazepin-6(11H)-one], the “% Ctrl, SBK1” value at panel of 442 kinases [1] was 72 % Ctrl. The “KINOMEscan: DMPK2” value at panel of 442 kinases [2] was determined as 94. Moreover, on panel of 442 kinases [3], the “% Ctrl, TTK” value came out at 94 % Ctrl.
